Reference: publication PMC12736255, “Reinvestigating Pyrrol-2-One-Based Compounds: From Antimicrobial Agents to Promising Antitumor Candidates” (Pharmaceuticals, 2025)

Tests used:
Assay in all cases: NCI-60 single-dose screen
[1] = tested on: EKVX; assay type: cell-based, human; conditions: Homo sapiens, 10^–5 M, read-out: GI (%)
Summary of the method: (§1)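 At 10^−5 M, the submitted compounds were screened once across the NCI collection of 60 human cancer lines representing leukemia, melanoma and solid tumors of lung, colon, brain, ovary, kidney, prostate and breast.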

[2] = tested on: NCI-H226; assay type: cell-based, human; conditions: Homo sapiens; NCI-H226, 10^–5 M; read-out: GI (%)
Summary of the method: as §1

[3] = tested on: 786-0; assay type: cell-based; conditions: Homo sapiens; 786-0, 10^–5 M; read-out: GI (%)
Summary of the method: as §1

[4] = tested on: A498; assay type: cell-based; conditions: Homo sapiens; A498, 10^–5 M; read-out: GI (%)
Summary of the method: as §1

[5] = tested on: CAKI-1; assay type: cell-based; conditions: Homo sapiens; CAKI-1, 10^–5 M; read-out: GI (%)
Summary of the method: as §1

[6] = tested on: COLO205; assay type: cell-based; conditions: Homo sapiens, COLO 205; COLO205, 10^–5 M; read-out: GI (%)
Summary of the method: as §1

[7] = tested on: HCT-116; assay type: cell-based; conditions: Homo sapiens; HCT-116, 10^–5 M; read-out: GI (%)
Summary of the method: as §1

[8] = tested on: HCT-15; assay type: cell-based; conditions: Homo sapiens; HCT-15, 10^–5 M; read-out: GI (%)
Summary of the method: as §1

[9] = tested on: HL-60(TB); assay type: cell-based; conditions: Homo sapiens, 10^–5 M, read-out: GI (%)
Summary of the method: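 The National Cancer Institute screened these compounds at a fixed 10^−5 M in its sixty-line human tumor cell panel.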

[10] = tested on: HOP-92; assay type: cell-based; conditions: Homo sapiens; HOP-92, 10^–5 M; read-out: GI (%)
Summary of the method: as §1

[11] = tested on: HS 578T; assay type: cell-based; conditions: Homo sapiens, 10^–5 M, read-out: GI (%)
Summary of the method: as §1

[12] = tested on: HT-29; assay type: cell-based; conditions: Homo sapiens; HT-29, 10^–5 M; read-out: GI (%)
Summary of the method: as §1

[13] = tested on: KM12; assay type: cell-based; conditions: Homo sapiens; KM12, 10^–5 M; read-out: GI (%)
Summary of the method: as §1

[14] = tested on: LOX IMVI; assay type: cell-based; conditions: Homo sapiens, 10^–5 M, read-out: GI (%)
Summary of the method: as §1

[15] = tested on: M14; assay type: cell-based; conditions: Homo sapiens; M14, 10^–5 M; read-out: GI (%)
Summary of the method: as §1

[16] = tested on: MCF7; assay type: cell-based; conditions: Homo sapiens; MCF7, 10^–5 M; read-out: GI (%)
Summary of the method: as §1

[17] = tested on: MDA-MB-231/ATCC; assay type: cell-based; conditions: Homo sapiens, 10^–5 M, read-out: GI (%)
Summary of the method: as §1

[18] = tested on: MDA-MB-435; assay type: cell-based; conditions: Homo sapiens; MDA-MB-435, 10^–5 M; read-out: GI (%)
Summary of the method: as §1

[19] = tested on: MOLT-4; assay type: cell-based; conditions: Homo sapiens; MOLT-4, 10^–5 M; read-out: GI (%)
Summary of the method: as §1

[20] = tested on: NCI-H23; assay type: cell-based; conditions: Homo sapiens; NCI-H23, 10^–5 M; read-out: GI (%)
Summary of the method: as §1

[21] = tested on: NCI-H322M; assay type: cell-based; conditions: Homo sapiens, 10^–5 M, read-out: GI (%)
Summary of the method: as §1

[22] = tested on: NCI-H522; assay type: cell-based; conditions: Homo sapiens; NCI-H522, 10^–5 M; read-out: GI (%)
Summary of the method: as §1

[23] = tested on: NCI/ADR-RES; assay type: cell-based; conditions: Homo sapiens, 10^–5 M, read-out: GI (%)
Summary of the method: as §1

[24] = tested on: OVCAR-3; assay type: cell-based; conditions: Homo sapiens; OVCAR-3, 10^–5 M; read-out: GI (%)
Summary of the method: as §1

[25] = tested on: OVCAR-8; assay type: cell-based; conditions: Homo sapiens; OVCAR-8, 10^–5 M; read-out: GI (%)
Summary of the method: as §1

[26] = tested on: RPMI-8226; assay type: cell-based; conditions: Homo sapiens; RPMI-8226, 10^–5 M; read-out: GI (%)
Summary of the method: as §1

[27] = tested on: SF-268; assay type: cell-based; conditions: Homo sapiens; SF-268, 10^–5 M; read-out: GI (%)
Summary of the method: as §1

[28] = tested on: SF-539; assay type: cell-based; conditions: Homo sapiens; SF-539, 10^–5 M; read-out: GI (%)
Summary of the method: as §1

[29] = tested on: SK-MEL-2; assay type: cell-based; conditions: Homo sapiens; SK-MEL-2, 10^–5 M; read-out: GI (%)
Summary of the method: as §1

[30] = tested on: SK-MEL-5; assay type: cell-based; conditions: Homo sapiens; SK-MEL-5, 10^–5 M; read-out: GI (%)
Summary of the method: as §1

[31] = tested on: SK-OV-3; assay type: cell-based; conditions: Homo sapiens; SK-OV-3, 10^–5 M; read-out: GI (%)
Summary of the method: as §1

[32] = tested on: SN12C; assay type: cell-based; conditions: Homo sapiens, 10^–5 M, read-out: GI (%)
Summary of the method: as §1

[33] = tested on: SNB-19; assay type: cell-based; conditions: Homo sapiens; SNB-19, 10^–5 M; read-out: GI (%)
Summary of the method: as §1

[34] = tested on: SNB-75; assay type: cell-based; conditions: Homo sapiens; SNB-75, 10^–5 M; read-out: GI (%)
Summary of the method: as §1

[35] = tested on: SW-620; assay type: cell-based; conditions: Homo sapiens; SW-620, 10^–5 M; read-out: GI (%)
Summary of the method: as §1

[36] = tested on: T-47D; assay type: cell-based; conditions: Homo sapiens, T47D, 10^–5 M, read-out: GI (%)
Summary of the method: as §1

[37] = tested on: UACC-257; assay type: cell-based; conditions: Homo sapiens; UACC-257, 10^–5 M; read-out: GI (%)
Summary of the method: as §1

With `O=C1C(Nc2ccc(I)cc2)=CC(c2ccco2)N1c1ccc(I)cc1` (centres unmarked) [3m] the inhibition at 10 µM [1] was 39%, the inhibition at 10 µM [2] was 22% and the inhibition at 10 µM [3] was 36%. It also gave an inhibition at 10 µM [4] of 12%, an inhibition at 10 µM [5] of 53% and an inhibition at 10 µM [6] of 8%. It also gave an inhibition at 10 µM [7] of 20%, an inhibition at 10 µM [8] of 16% and an inhibition at 10 µM [9] of 30%. It also gave an inhibition at 10 µM [10] of 29%, an inhibition at 10 µM [11] of 39% and an inhibition at 10 µM [12] of 6%. The inhibition at 10 µM [13] was 48%, the inhibition at 10 µM [14] was 63% and the inhibition at 10 µM [15] was 4%. For the same molecule, the inhibition at 10 µM [16] was 93%, the inhibition at 10 µM [17] was 11% and the inhibition at 10 µM [18] was 84%. The inhibition at 10 µM [19] was 70%, the inhibition at 10 µM [20] was 19% and the inhibition at 10 µM [21] was 19%. For the same molecule, the inhibition at 10 µM [22] was 31%, the inhibition at 10 µM [23] was 15% and the inhibition at 10 µM [24] was 8%. It also gave an inhibition at 10 µM [25] of 11%, an inhibition at 10 µM [26] of 93% and an inhibition at 10 µM [27] of 79%. The inhibition at 10 µM [28] was 63%, the inhibition at 10 µM [29] was 100% and the inhibition at 10 µM [30] was 17%. It also gave an inhibition at 10 µM [31] of 67%, an inhibition at 10 µM [32] of 27% and an inhibition at 10 µM [33] of 8%. The inhibition at 10 µM [34] was 9%, the inhibition at 10 µM [35] was 16% and the inhibition at 10 µM [36] was 49%. The inhibition at 10 µM [37] was 32%.

`O=C1C(Nc2ccc(I)cc2)=CC(c2ccc3c(c2)OCO3)N1c1ccc(I)cc1` (centres unmarked) [3n] was tested, and the inhibition at 10 µM [1] was 12%, the inhibition at 10 µM [2] was 3% and the inhibition at 10 µM [3] was 9%. It also gave an inhibition at 10 µM [4] of 16%, an inhibition at 10 µM [5] of 16% and an inhibition at 10 µM [6] of 5%. The inhibition at 10 µM [7] was 9%, the inhibition at 10 µM [8] was 9% and the inhibition at 10 µM [9] was 16%. It also gave an inhibition at 10 µM [10] of 4%, an inhibition at 10 µM [11] of 25% and an inhibition at 10 µM [12] of 5%. For the same molecule, the inhibition at 10 µM [13] was 19%, the inhibition at 10 µM [14] was 10% and the inhibition at 10 µM [15] was 5%. The inhibition at 10 µM [16] was 30%, the inhibition at 10 µM [17] was 0% and the inhibition at 10 µM [18] was 0%. For the same molecule, the inhibition at 10 µM [19] was 20%, the inhibition at 10 µM [20] was 18% and the inhibition at 10 µM [21] was 3%. For the same molecule, the inhibition at 10 µM [22] was 26%, the inhibition at 10 µM [23] was 0% and the inhibition at 10 µM [24] was 10%. It also gave an inhibition at 10 µM [25] of 0%, an inhibition at 10 µM [26] of 20% and an inhibition at 10 µM [27] of 25%. For the same molecule, the inhibition at 10 µM [28] was 87%, the inhibition at 10 µM [29] was 56% and the inhibition at 10 µM [30] was 1%. The inhibition at 10 µM [31] was 13%, the inhibition at 10 µM [32] was 16% and the inhibition at 10 µM [33] was 5%. It also gave an inhibition at 10 µM [34] of 20%, an inhibition at 10 µM [35] of 9% and an inhibition at 10 µM [36] of 22%. It also gave an inhibition at 10 µM [37] of 0%.
